Test results published in publication PMC7932537, “Quantitative profiling of protease specificity” (PLoS Computational Biology, 2021).

Assays:
MMP-2 = biological target: T1, MMP-2 (Homo sapiens, UniProt P08253); experiment: K(obs) of individual phage substrates (set of 1369); format: biochemical; conditions: MMP2
T1 sequence (P08253 110-660): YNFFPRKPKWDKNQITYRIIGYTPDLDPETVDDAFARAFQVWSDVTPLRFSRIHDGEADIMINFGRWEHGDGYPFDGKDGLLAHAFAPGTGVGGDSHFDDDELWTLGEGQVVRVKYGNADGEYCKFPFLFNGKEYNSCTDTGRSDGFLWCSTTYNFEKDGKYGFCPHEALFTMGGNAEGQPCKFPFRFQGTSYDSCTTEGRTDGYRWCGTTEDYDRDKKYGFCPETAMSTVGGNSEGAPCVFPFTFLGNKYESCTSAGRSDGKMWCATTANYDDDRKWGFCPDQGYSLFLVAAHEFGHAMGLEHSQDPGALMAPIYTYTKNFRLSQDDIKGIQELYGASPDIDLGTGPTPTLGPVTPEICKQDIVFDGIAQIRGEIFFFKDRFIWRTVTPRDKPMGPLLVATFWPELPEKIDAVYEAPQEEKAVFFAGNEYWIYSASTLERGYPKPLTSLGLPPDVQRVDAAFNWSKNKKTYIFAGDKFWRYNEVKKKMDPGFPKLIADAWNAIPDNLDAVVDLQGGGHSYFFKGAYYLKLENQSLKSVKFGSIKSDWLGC

MMP-9 = MMP-9 (Homo sapiens, UniProt P14780); experiment: as above; format: biochemical; conditions: MMP9, individual phage substrates, set of 1369 peptides
Sequence of MMP-9 (P14780 94-707): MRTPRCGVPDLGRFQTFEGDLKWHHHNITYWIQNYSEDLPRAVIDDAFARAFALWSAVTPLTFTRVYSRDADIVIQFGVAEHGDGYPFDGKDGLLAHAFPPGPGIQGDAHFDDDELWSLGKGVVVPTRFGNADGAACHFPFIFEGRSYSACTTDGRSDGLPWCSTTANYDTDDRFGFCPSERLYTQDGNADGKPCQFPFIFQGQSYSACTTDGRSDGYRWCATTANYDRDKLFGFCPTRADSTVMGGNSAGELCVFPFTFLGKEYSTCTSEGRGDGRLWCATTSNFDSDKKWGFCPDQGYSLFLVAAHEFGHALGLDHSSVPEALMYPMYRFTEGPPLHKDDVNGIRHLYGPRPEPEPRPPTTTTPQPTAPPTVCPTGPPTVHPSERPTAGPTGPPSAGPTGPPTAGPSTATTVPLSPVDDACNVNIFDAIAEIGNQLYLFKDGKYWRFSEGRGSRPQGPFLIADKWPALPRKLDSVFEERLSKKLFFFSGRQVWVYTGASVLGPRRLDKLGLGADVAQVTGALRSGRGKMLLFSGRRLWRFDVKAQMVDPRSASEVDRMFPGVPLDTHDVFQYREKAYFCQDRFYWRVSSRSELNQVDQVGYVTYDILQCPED

[1] = individual phage substrates, set of 1369 peptides, cleavage position marked by '-' in the sequence
[2] = '-' marks the cleavage position (P1-P1')
[3] = individual phage substrate from the set of 1369 peptides, cleavage position marked by the dash in the sequence
[4] = dash in sequence marks cleavage position

Substance | Kobs (MMP-2; [1]) | Kobs (MMP-9; [2]) | Kobs (MMP-2; [3]) | Kobs (MMP-9; [4])
GAPDQ-LSTAS | – | – | 142.481 M⁻¹ s⁻¹ | 323.705 M⁻¹ s⁻¹
GGSGA-LQRLP | 113.394 M⁻¹ s⁻¹ | 0 M⁻¹ s⁻¹ | – | –
SGVHR-LSYTA | – | – | 0 M⁻¹ s⁻¹ | 0 M⁻¹ s⁻¹
GNAMR-MVTAS | 0 M⁻¹ s⁻¹ | 56.119 M⁻¹ s⁻¹ | – | –
GKPLP-WTASG | 6131.32 M⁻¹ s⁻¹ | 5889.62 M⁻¹ s⁻¹ | – | –
SGPMH-LRSTA | 8321.48 M⁻¹ s⁻¹ | 10866.7 M⁻¹ s⁻¹ | – | –
SIPNA-LTASG | 12792.1 M⁻¹ s⁻¹ | 9740.44 M⁻¹ s⁻¹ | – | –
TLPHS-LTASG | – | – | 12792.1 M⁻¹ s⁻¹ | 9740.44 M⁻¹ s⁻¹
FHIAH-LTASG | 12792.1 M⁻¹ s⁻¹ | 3850.82 M⁻¹ s⁻¹ | – | –
SGVKF-LFNTA | – | – | 0 M⁻¹ s⁻¹ | 113.394 M⁻¹ s⁻¹
GTPSK-LYTAS | – | – | 6131.32 M⁻¹ s⁻¹ | 2038.8 M⁻¹ s⁻¹
QRVLP-LTASG | – | – | 6396.07 M⁻¹ s⁻¹ | 2038.8 M⁻¹ s⁻¹
SGIQT-MKVTA | 0 M⁻¹ s⁻¹ | 0 M⁻¹ s⁻¹ | – | –
GGSGR-LNMRL | 0 M⁻¹ s⁻¹ | 0 M⁻¹ s⁻¹ | – | –
QAAFH-LTASG | 3964.21 M⁻¹ s⁻¹ | 3253.29 M⁻¹ s⁻¹ | – | –
GGSGA-LRVQL | 231.616 M⁻¹ s⁻¹ | 0 M⁻¹ s⁻¹ | – | –
YSPSL-ITASG | – | – | 4470.66 M⁻¹ s⁻¹ | 2476.66 M⁻¹ s⁻¹
DAPYF-LTASG | – | – | 5667.28 M⁻¹ s⁻¹ | 8321.48 M⁻¹ s⁻¹
GTMMS-LMTAS | 1763.55 M⁻¹ s⁻¹ | 0 M⁻¹ s⁻¹ | – | –
SGLQN-LMLTA | 113.394 M⁻¹ s⁻¹ | 113.394 M⁻¹ s⁻¹ | – | –
GNADL-IMTAS | – | – | 0 M⁻¹ s⁻¹ | 0 M⁻¹ s⁻¹

More lines, now with the values ahead:

Kobs (MMP-2; [1]) | Kobs (MMP-9; [2]) | Kobs (MMP-2; [3]) | Kobs (MMP-9; [4]) | Substance
1196.62 M⁻¹ s⁻¹ | 484.315 M⁻¹ s⁻¹ | – | – | GSGNF-LRKMT
0 M⁻¹ s⁻¹ | 0 M⁻¹ s⁻¹ | – | – | AGLDL-LTASG
912.511 M⁻¹ s⁻¹ | 726.013 M⁻¹ s⁻¹ | – | – | NFGRP-LTASG
– | – | 517.582 M⁻¹ s⁻¹ | 619.843 M⁻¹ s⁻¹ | NSHMA-LTASG
142.481 M⁻¹ s⁻¹ | 1030.73 M⁻¹ s⁻¹ | – | – | VRTMA-LTASG
0 M⁻¹ s⁻¹ | 27.918 M⁻¹ s⁻¹ | – | – | GKVHQ-MLTAS
12792.1 M⁻¹ s⁻¹ | 12792.1 M⁻¹ s⁻¹ | – | – | SGPSD-LHATA
12792.1 M⁻¹ s⁻¹ | 12792.1 M⁻¹ s⁻¹ | – | – | FIARA-LTASG
27.918 M⁻¹ s⁻¹ | 0 M⁻¹ s⁻¹ | – | – | GSAHL-LLTAS
– | – | 3253.29 M⁻¹ s⁻¹ | 551.253 M⁻¹ s⁻¹ | PYAEN-LTASG
231.616 M⁻¹ s⁻¹ | 0 M⁻¹ s⁻¹ | – | – | SGYAG-LRQTA
12792.1 M⁻¹ s⁻¹ | 113.394 M⁻¹ s⁻¹ | – | – | IMMAY-LTASG
8941.32 M⁻¹ s⁻¹ | 12792.1 M⁻¹ s⁻¹ | – | – | RYPWA-LTASG
7386.83 M⁻¹ s⁻¹ | 386.839 M⁻¹ s⁻¹ | – | – | EQLAN-MTASG
0 M⁻¹ s⁻¹ | 0 M⁻¹ s⁻¹ | – | – | GPMQR-LMTAS
– | – | 6396.07 M⁻¹ s⁻¹ | 2097.28 M⁻¹ s⁻¹ | NSPQL-LTASG

Kobs (MMP-2; [1]) | Kobs (MMP-9; [2]) | Kobs (MMP-2; [3]) | Kobs (MMP-9; [4]) | Substance
0 M⁻¹ s⁻¹ | 0 M⁻¹ s⁻¹ | – | – | GVLFH-LSTAS
– | – | 12792.1 M⁻¹ s⁻¹ | 12792.1 M⁻¹ s⁻¹ | GKPQN-LRTAS
27.918 M⁻¹ s⁻¹ | 231.616 M⁻¹ s⁻¹ | – | – | RPAQD-LTASG
– | – | 0 M⁻¹ s⁻¹ | 84.609 M⁻¹ s⁻¹ | TTSLR-LTASG
12792.1 M⁻¹ s⁻¹ | 12792.1 M⁻¹ s⁻¹ | – | – | SGPLG-IFYTA
56.119 M⁻¹ s⁻¹ | 113.394 M⁻¹ s⁻¹ | – | – | SYMFS-LTASG
7815.03 M⁻¹ s⁻¹ | 0 M⁻¹ s⁻¹ | – | – | GRIAL-LTTAS
12792.1 M⁻¹ s⁻¹ | 3850.82 M⁻¹ s⁻¹ | – | – | SGLGE-LRGTA
– | – | 292.668 M⁻¹ s⁻¹ | 355.093 M⁻¹ s⁻¹ | GEAWH-LFTAS
– | – | 0 M⁻¹ s⁻¹ | 0 M⁻¹ s⁻¹ | SGHMH-MRSTA
5090.5 M⁻¹ s⁻¹ | 201.585 M⁻¹ s⁻¹ | – | – | IGYAW-MTASG
8941.32 M⁻¹ s⁻¹ | 7815.03 M⁻¹ s⁻¹ | – | – | PGVRF-LTASG
0 M⁻¹ s⁻¹ | 0 M⁻¹ s⁻¹ | – | – | TLTHH-LTASG
6131.32 M⁻¹ s⁻¹ | 2837.92 M⁻¹ s⁻¹ | – | – | GCLMA-LTTAS
10866.7 M⁻¹ s⁻¹ | 0 M⁻¹ s⁻¹ | – | – | GTIAH-LHTAS
